Legend:
[1] = Powder dissolution of triturated mixtures in capsules in 500 mL pH 6.8 buffer; assay type: physicochemical; conditions: for % Release, Average of n = 2 (range) / % Release, average / % Release / % Release, average (range): capsule; for % Release, average: 200 mg drug + Meglumine 100 mg; for % Release: 200 mg drug + Pluronic acid 100 mg, n = 1
Source text: One class of solubilizer excipients, basifiers, act by increasing the microenvironment pH and thereby increasing the local solubility of the drug (for a drug containing an acid moiety). Another class of solubilizer excipients, surfactants, also act by increasing the local solubility of the drug. […] For example, an enhancement in dissolution was obtained when surfactants, for example, sodium lauryl sulfate or Vitamin E TPGS, were used in combination with basifiers, for example, L-arginine, meglumine or L-lysine. […] For example, only 1% drug release was obtained when Compound (1) sodium salt crystalline was present. The % drug release was 54% at 60 minutes in the presence of 100 mg Arginine alone and 59% in the presence of Sodium lauryl sulfate alone (Table 2). However, in presence of 100 mg of Arginine along with 100 mg of Sodium lauryl sulfate, the % drug release increased to 93% at 60 minutes (Table 3) indicating enhancement in dissolution when both surfactant and basifier were used in combination.

[2] = Powder dissolution testing in pH 6.8 buffer, USP Type II Paddle apparatus; assay type: physicochemical; conditions: 60 minutes, listed as crystalline Compound (1) sodium salt
[3] = Water content at variable humidity (adsorption curve of VTI measurement); assay type: physicochemical; conditions: 25° C.
Protocol: Bruker D-8 Advance X-Ray Powder Diffractometer in parallel beam mode with a scintillation detector and using a variable temperature/humidity stage. Humidity adjusted and equilibrated at 25° C., scans from 2-35° 2-theta, 0.05° 2-theta step size, 4 seconds/step At higher humidity (50% RH, and 85% RH) the diffraction lines in the resulting patterns are shifted consistent with lattice expansion to accommodate more water in the lattice. The amount of water at 50% RH based on the adsorption curve of the VTI measurement is 1.7%, and the amount of water at 85% RH is 4.5%. When the sample is exposed to ambient conditions after high humidity the resulting diffraction pattern is again consistent with that of the starting material.

[4] = Storage stability of concentrated supersaturated aqueous solutions; assay type: physicochemical; conditions: 10 month storage at room temperature
Protocol: This unique behavior of high solubility at high drug concentrations is most likely attributable to tendency of the drug substance to self-micellize. A CMC value of 41.4 mM (corresponding to 28 mg/mL) is estimated.

HCV infection = experiment: Human clinical trials in HCV-infected patients; assay type: in vivo

Cn1c(C2(NC(=O)c3ccc4c(C5CCCC5)c(-c5ncc(Br)cn5)n(C)c4c3)CCC2)nc2ccc(/C=C/C(=O)[O-])cc21.[Na+] [Compound (1) sodium salt]
% Release, Average of n = 2 (range) ([1]; 200 mg drug + Lysine + VitE TPGS (100 mg + 100 mg), 15 min): 42 (29-55) % | % Release, Average of n = 2 (range) ([1]; 200 mg drug + Lysine + VitE TPGS (100 mg + 100 mg), 30 min): 79 (77-81) % | % Release, Average of n = 2 (range) ([1]; 200 mg drug + Lysine + VitE TPGS (100 mg + 100 mg), 60 min): 83 (82-83) % | % Release, Average of n = 2 (range) ([1]; 200 mg drug + Lysine + VitE TPGS (100 mg + 100 mg), 90 min): 81 (81-82) % | % Release, average ([1]; 90 (infinity), n = 2): 49% | % Release, average ([1]; 15 min, n = 2): 47% | % Release, average ([1]; 30 min, n = 2): 48% | % Release, average ([1]; 60 min, n = 2): 48% | % Release, Average of n = 2 (range) ([1]; 200 mg drug + Meglumine + SDS (40 mg + 20 mg), 15 min): 66 (61-71) % | % Release, Average of n = 2 (range) ([1]; 200 mg drug + Meglumine + SDS (40 mg + 20 mg), 30 min): 73 (71-75) % | % Release, Average of n = 2 (range) ([1]; 200 mg drug + Meglumine + SDS (40 mg + 20 mg), 60 min): 70 (69-71) % | % Release, Average of n = 2 (range) ([1]; 200 mg drug + Meglumine + SDS (40 mg + 20 mg), 90 min): 68 (67-69) % | % Release, Average of n = 2 (range) ([1]; 200 mg drug + Meglumine + SDS (100 mg + 100 mg), 15 min): 81 (79-83) % | % Release, Average of n = 2 (range) ([1]; 200 mg drug + Meglumine + SDS (100 mg + 100 mg), 30 min): 87 (86-88) % | % Release, Average of n = 2 (range) ([1]; 200 mg drug + Meglumine + SDS (100 mg + 100 mg), 60 min): 83 (80-87) % | % Release, Average of n = 2 (range) ([1]; 200 mg drug + Meglumine + SDS (100 mg + 100 mg), 90 min): 86 (85-87) % | % Release, Average of n = 2 (range) ([1]; 200 mg drug + Meglumine + VitE TPGS (40 mg + 20 mg), 15 min): 52 (33-70) % | % Release, Average of n = 2 (range) ([1]; 200 mg drug + Meglumine + VitE TPGS (40 mg + 20 mg), 30 min): 73 (73-73) % | % Release, Average of n = 2 (range) ([1]; 200 mg drug + Meglumine + VitE TPGS (40 mg + 20 mg), 60 min): 73 (73-74) % | % Release, Average of n = 2 (range) ([1]; 200 mg drug + Meglumine + VitE TPGS (40 mg + 20 mg), 90 min): 71 (70-72) % | % Release, Average of n = 2 (range) ([1]; 200 mg drug + Meglumine + VitE TPGS (100 mg + 100 mg), 15 min): 81 (81-81) % | % Release, Average of n = 2 (range) ([1]; 200 mg drug + Meglumine + VitE TPGS (100 mg + 100 mg), 30 min): 85 (84-86) % | % Release, Average of n = 2 (range) ([1]; 200 mg drug + Meglumine + VitE TPGS (100 mg + 100 mg), 60 min): 86 (84-87) % | % Release, Average of n = 2 (range) ([1]; 200 mg drug + Meglumine + VitE TPGS (100 mg + 100 mg), 90 min): 82 (80-84) % | % Release ([1]; 90 (infinity)): 13% | % Release ([1]; 15 min): 3% | % Release ([1]; 30 min): 12% | % Release ([1]; 60 min): 12% | % Release, average (range) ([1]; 200 mg drug + SDS 100 mg, 90 (infinity), n = 2): 49 (45-53) % | % Release, average (range) ([1]; 200 mg drug + SDS 100 mg, 15 min, n = 2): 57 (56-57) % | % Release, average (range) ([1]; 200 mg drug + SDS 100 mg, 30 min, n = 2): 61 (60-63) % | % Release, average (range) ([1]; 200 mg drug + SDS 100 mg, 60 min, n = 2, listed as Compound (1) Na Salt): 59 (58-60) % | % Release, average (range) ([1]; 200 mg drug + SDS 100 mg, 60 min, n = 2, listed as Compound (1) sodium salt crystalline): 59% | % Release, average (range) ([1]; 200 mg drug + Tris 100 mg, 90 (infinity), n = 3): 41 (33-46) % | % Release, average (range) ([1]; 200 mg drug + Tris 100 mg, 15 min, n = 3): 40 (34-43) % | % Release, average (range) ([1]; 200 mg drug + Tris 100 mg, 60 min, n = 3): 44 (35-48) % | % Release, average (range) ([1]; 200 mg drug + Vit E TPGS 100 mg, 90 (infinity), n = 2): 27 (27-27) % | % Release, average (range) ([1]; 200 mg drug + Vit E TPGS 100 mg, 15 min, n = 2): 24 (24-24) % | % Release, average (range) ([1]; 200 mg drug + Vit E TPGS 100 mg, 30 min, n = 2): 27 (27-27) % | % Release, average (range) ([1]; 200 mg drug + Vit E TPGS 100 mg, 60 min, n = 2): 27 (27-27) % | % Release, average (range) ([1]; Drug alone 200 mg, 90 (infinity), n = 2): 1 (1-2) % | % Release, average (range) ([1]; Drug alone 200 mg, 15 min, n = 2): 1 (1-1) % | % Release, average (range) ([1]; Drug alone 200 mg, 30 min, n = 2): 1 (1-1) % | % Release, average (range) ([1]; Drug alone 200 mg, 60 min, n = 2): 1 (1-2) % | % drug release ([1]; drug alone, no basifier or surfactant, time not stated): 1% | % dissolved (kinetic dissolution) [2]: < 5% | amount of water ([3]; 50% RH): 1.7% | amount of water ([3]; 85% RH): 4.5% | precipitation of highly concentrated supersaturated solutions [4]: no precipitation observed | effectiveness in treating HCV-infected patients (HCV infection): demonstrated effectiveness
